Assays:
[1] = system: muscle stem cells (MuSCs); test: MuSC count in muscle of treated aged mice (FACS, PAX7 immunostaining); format: in vivo, mouse
Source text: Muscle stem cells (MuSCs) are capable of giving rise to mature muscle fibers, and their regenerative capacity has been reported to be impaired upon aging. […] Consistent with this, PAX7 expression correlated negatively with the first PC of the ceramide synthetic pathway in both human (FIG. 3e) and mouse (FIG. 3f) skeletal muscle. To study whether increased Pax7 transcript abundance in skeletal muscle reflects elevated MuSC count, a7 integrin/CD34 double positive cells were isolated from the hind-limbs using fluorescence-activated cell sorting (FACS).
Stem cell isolation. Gastrocnemius, soleus, and quadriceps muscles from both hindlimbs were excised and transferred into PBS on ice. […] Stained cells were analyzed and sorted using the FACSAria II instrument (BD Biosciences). […]
Histology. […] Microscopy images of fluorescence from muscle fibers were analyzed using the ImageJ software. Centralized nuclei percent, minimal Feret diameter and cross-sectional area in TA muscles were determined using the ImageJ software quantification of laminin, dystrophin, and DAPI-stained muscle images from VS120-S6-W slides scanner (Olympus). […] The mean cross-sectional area of muscle fibers was calculated as the average cross-sectional area of 2,000 fibers per from sample. 7-8 mouse samples per condition were used for histological quantification of donor mice. […] For each quantification, 3 or more mice were used.

C2C12 myoblasts = test: C2C12 myoblast differentiation; format: cell-based, mouse; settings: C2C12, 30 μM myriocin vs DMSO
Procedure: Cell culture and cell transfection. The C2C12 mouse myoblast cell line was obtained from the American Type Culture Collection (CRL-1772™). C2C12 cells or clones were cultured in growth medium consisting of Dulbecco's modified Eagle's medium (Gibco, 41966-029), 20% Fetal Bovine Serum (Gibco, 10270-106) and 100 U/mL penicillin and […] streptomycin (Gibco, 15140-122). To induce differentiation, FBS was substituted with 2% horse serum (Gibco, 16050-122). Trypsin-EDTA 0.05% (GIBCO, 25300-062) was used to detach cells. Human skeletal muscle cells were obtained from Lonza (SkMC, #CC-2561) and cultured in growth medium consisting of DMEM/F12 (Gibco, 10565018), 20% Fetal Bovine Serum (Gibco, 10270-106) and 100 U/mL penicillin and […] streptomycin (Gibco, 15140-122). To induce differentiation, FBS was reduced to 2% and kept in culture. All cells were maintained at 37° C. with 5% CO2. Cell transfections were done using TransiT (Mirus) according to the manufacturer's protocol with a 3:1 ratio of transfection agent to DNA. C2C12 cells were grown confluent, and 30 μM myriocin or DMSO was added and cells were kept in growth medium for another 3 days. Sptlc1 clones were plated to reach confluency simultaneously and were kept in growth medium for 3 days before using them for immunocytochemistry or RNA isolation. The concentration of myriocin in medium for all experiments was 30 μM. A stock solution of 20 mM myriocin in DMSO was used dissolve myriocin, and a corresponding volume of DMSO without myriocin was used as control.
RNA isolation and real time qPCR. RNA was isolated using the RNeasy Mini kit (Qiagen, 74106) and reverse transcribed with the High-Capacity-RNA-to-cDNA kit (Thermo Fisher, 4387406). Gene expression was measured by qPCR using the Power SybrGreen Master mix (Thermo Fisher, 4367659). All quantitative polymerase chain reaction (PCR) results were calculated relative to the mean of the housekeeping gene Gapdh. The average of two technical replicates was used for each biological data point.
Immunocytochemistry. C2C12 cells cultured on a sterilized cover slip in 6-well plates (Greiner bio-one, CELLSTAR, 657160) were fixed in Fixx solution (Thermo Scientific, 9990244) for 15 min and permeabilized in 0.1% Triton X-100 (Amresco, 0694) solution for 15 min at room temperature. Cells were blocked in 3% BSA for 1 h at room temperature to avoid unspecific antibody binding and then incubated with primary antibody over night at 4° C. with gentle shaking. […] The immunofluorescence images were acquired using either fluorescence or confocal microscopy. The myofusion index was calculated as the ratio of nuclei within myotubes to total nuclei. The myotube diameter was measured for 8 myotubes per image using ImageJ. Myotube area was calculated as the total area covered by myotubes.

Question: Which “number of PAX7+ muscle cells in TA tissue sections” value ([1]; aged myriocin treated mice) does the source give for CCCCCCC(=O)CCCCCCC=CCC(O)C(O)C(N)(CO)C(=O)O (stereo not drawn) [myriocin, 2-Amino-3,4-dihydroxy-2-(hydroxymethyl)-14-oxoicos-6-enoic acid] here?
Answer: The value was “elevated number”.

Question: And the “number of MuSCs in hindlimbs (a7 integrin/CD34 double positive cells, FACS)” value ([1]; young, aged, and aged myriocin treated mice)?
Answer: Its value is “restored the MuSC pool of aged mice close to that of young mice”.

Question: And the fusion index (C2C12 myoblasts)?
Answer: The fusion index was “greater”.

Question: What about the myoblast differentiation (C2C12 myoblasts) of the same compound?
Answer: The myoblast differentiation was “accelerated”.

Question: What about the “myogenic transcript signature (Myog, Myh4, Myh1)” value (C2C12 myoblasts) of the same compound?
Answer: The value was “upregulation”.

Question: What about the myotube area (C2C12 myoblasts) of the same compound?
Answer: Its myotube area is “greater”.

Reference: patent US20220288004A1, “TREATMENT AND PREVENTION OF AGING RELATED-DISEASE AND/OR AGING BY THE INHIBITION OF SPHINGOLIPIDS” (ECOLE POLYTECHNIQUE FEDERALE DE LAUSANNE (EPFL), priority 2019, published 2022)
